Results from US8114989B2, “Pyrazolylaminopyrimidine derivatives useful as tyrosine kinase inhibitors” (AstraZeneca AB, priority 2005, dated 2012).

Target: T1, human Trk A kinase (Homo sapiens, UniProt P04629)
T1 construct: HIS; made in house; host or cells: SF9 insect cells
Test: Trk A Assay (Alphascreen kinase assay)
Assay type: biochemical
Conditions: 70 μM ATP, PolyEY-biotin substrate, 20 minutes, room temperature, read-out: Trk inhibitory activity IC50
Experimental: After incubation of the kinase with a biotinylated substrate and adenosine triphosphate (ATP) for 20 minutes at room temperature, the kinase reaction was stopped by the addition of 30 mM ethylenediaminetetraacetic acid (EDTA). The reaction was performed in 384 well microtitre plates and the reaction products were detected with the addition of strepavidin coated Donor Beads and phosphotyrosine-specific antibodies coated Acceptor Beads using the EnVision Multilabel Plate Reader after an overnight incubation at room temperature.

T1 sequence (P04629 442-796): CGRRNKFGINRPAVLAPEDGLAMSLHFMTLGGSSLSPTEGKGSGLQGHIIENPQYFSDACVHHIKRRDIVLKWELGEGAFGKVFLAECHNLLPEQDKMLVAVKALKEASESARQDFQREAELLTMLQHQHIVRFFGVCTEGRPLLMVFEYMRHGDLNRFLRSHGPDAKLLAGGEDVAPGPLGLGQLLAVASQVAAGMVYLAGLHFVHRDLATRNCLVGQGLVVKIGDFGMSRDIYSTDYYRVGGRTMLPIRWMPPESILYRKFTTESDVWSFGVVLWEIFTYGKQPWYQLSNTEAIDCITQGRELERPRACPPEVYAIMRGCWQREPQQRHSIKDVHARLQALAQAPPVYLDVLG

Question: Which IC50 does the source give for `C[C@H](Nc1ncc(F)c(Nc2cc(C3CC3)[nH]n2)n1)c1ccc(F)cn1` [Example 3, (S)-5-Fluoro-N^1-(5-cyclopropyl-1H-pyrazol-3-yl)-N^2-(1-(5-fluoropyridin-2-yl)ethyl)pyrimidine-2,4-diamine] here?
Answer: Its IC50 is 10 nM.
